Reference: patent US9376376B2, “Substitute diphenylamine compounds use thereof as antitumor agents” (SINOCHEM CORPORATION, priority 2012, dated 2016)

Key:
lung cancer A549 cell = experiment: In vitro cell inhibition assay (MTT method), A549; format: cell-based, human; settings: 48 h incubation
Experimental: (§1) The human cancer cell lines used for this assay were lung cancer A549 and leukemia HL-60.
(§2) The A549 or HL-60 cells were picked up from cell incubator, after washed for twice using PBS, cells were digested by 0.25% trypsin, and then add medium to terminate the digestion. After cells were collected using centrifuge and re-suspended, count cells under inverted microscope and add medium to make a density was 5×10^4 cells/mL. After 100 μL aliquots were added to each well of 96-well microtiter plates, cells were cultured in 5% incubator for overnight at 37° C., then the different concentration compounds were added to each well. After incubation for 48 h, MTT solution was added to each well and plates were then incubated for 4 h. The MTT tetrazolium was reduced to formazan by living cells. Then the formazan crystals were dissolved though adding DMSO to each well. The absorbance was read at 570 nm with a microplate reader.

leukemia HL-60 cells = experiment: In vitro cell inhibition assay (MTT method), HL-60; format: cell-based, human; settings: 48 h
Experimental: as §1, §2

SMILES	Proliferation inhibitory effect of the compounds on A549 cell (% of Control) (lung cancer A549 cell; 0.01 μM)	Proliferation inhibitory effect of the compounds on A549 cell (% of Control) (lung cancer A549 cell; 0.1 μM)	Proliferation inhibitory effect of the compounds on A549 cell (% of Control) (lung cancer A549 cell; 1 μM)	Proliferation inhibitory effect of the compounds on A549 cell (% of Control) (lung cancer A549 cell; 10 μM)	Proliferation inhibitory effect of the compounds on A549 cell (% of Control) (lung cancer A549 cell; 100 μM)	Proliferation inhibitory effect of the compounds on HL-60 cells (% of Control) (leukemia HL-60 cells; concentration 0.01 μM)	Proliferation inhibitory effect of the compounds on HL-60 cells (% of Control) (leukemia HL-60 cells; concentration 0.1 μM)	Proliferation inhibitory effect of the compounds on HL-60 cells (% of Control) (leukemia HL-60 cells; concentration 1 μM)	Proliferation inhibitory effect of the compounds on HL-60 cells (% of Control) (leukemia HL-60 cells; concentration 10 μM)	Proliferation inhibitory effect of the compounds on HL-60 cells (% of Control) (leukemia HL-60 cells; concentration 100 μM)
N#Cc1c(Cl)c(Cl)c(Nc2c(Br)cc([N+](=O)[O-])cc2Br)c(C#N)c1Cl [Compound 6-114]	10.1 % of Control	2.8 % of Control	11.5 % of Control	82.1 % of Control	94.9 % of Control	−0.4 % of Control	10.0 % of Control	20.7 % of Control	87.5 % of Control	93.2 % of Control
N#Cc1c(Cl)c(Cl)c(Nc2c(Cl)cccc2Cl)c(C#N)c1Cl [Compound 6-41]	3.8 % of Control	0.7 % of Control	13.1 % of Control	84.0 % of Control	92.0 % of Control	6.5 % of Control	3.9 % of Control	7.8 % of Control	86.5 % of Control	87.9 % of Control
N#Cc1c(Cl)c(Cl)c(Nc2ccc(Cl)cc2Cl)c(C#N)c1Cl [Compound 6-39]	18.3 % of Control	18.8 % of Control	19.6 % of Control	24.9 % of Control	92.6 % of Control	11.9 % of Control	14.7 % of Control	31.0 % of Control	78.5 % of Control	80.8 % of Control
Cc1cc([N+](=O)[O-])cc([N+](=O)[O-])c1Nc1c(Cl)cc(C#N)cc1Cl [Compound 30-104]	2.4 % of Control	1.1 % of Control	−0.1 % of Control	78.4 % of Control	91.8 % of Control	21.8 % of Control	31.6 % of Control	65.3 % of Control	88.0 % of Control	93.3 % of Control
Cc1cc([N+](=O)[O-])cc([N+](=O)[O-])c1Nc1c(Cl)cc(Cl)cc1C#N [Compound 30-120]	−1.5 % of Control	−0.9 % of Control	−0.7 % of Control	84.0 % of Control	92.0 % of Control	23.6 % of Control	39.2 % of Control	70.6 % of Control	95.9 % of Control	95.7 % of Control
